Consider 14 compounds from ChEMBL document CHEMBL1123997, “Modeling of beta-adrenoceptors based on molecular electrostatic potential studies of agonists and antagonists” (J Med Chem, 1988).

In experiment [1] the target is T1, Adrenergic receptor beta (Homo sapiens) (UniProt P08588+P07550+P13945).
In experiment [2] the target is T1, Adrenergic receptor beta (Homo sapiens). This is another data set of the same source.
For experiment [3] the target is unchanged. As to conditions: filed as antagonist.
For experiment [4] the target is unchanged. As to conditions: filed as antagonist. The source holds these as a separate data set.
Experiment [5] shares this target. As to conditions: filed as agonist.
Description: Tested for intrinsic sympathomimetic activity (ISA); Agonist

With `Cc1cc2c(OCC(O)CNC(C)C)cccc2[nH]1` (centres undefined), the ISA result in experiment [1] was “Partial agonist”.

On to `CC(C)NCC(O)c1ccc(Cl)c(Cl)c1` (centres undefined), for which the ISA entry in experiment [2] was “Partial agonist”.

Consider `CC(C)(C)NCC(O)COc1cccc2c1CCCC2=O` (centres undefined), for which the ISA result in experiment [3] is “Antagonist”.

Consider `COc1ccc(CCNC[C@H](O)COc2ccc(Cc3nc(C(C)=O)c[nH]3)cc2)cc1OC`, for which the ISA result in experiment [4] was “Antagonist”.

On to `CC(C)(C)NCC(O)COc1cccc2c1CC(O)C(O)C2` (centres undefined), for which the ISA entry in experiment [4] is “Antagonist”.

`CC(C)(C)NC[C@H](O)COc1cccc2c1CC1(CCCCC1)C2=O`: the ISA entry in experiment [4] is “Antagonist”.

For the compound `CC(C)(C)NCC(O)COc1cccc2c1SCCC2` (centres undefined), the ISA entry in experiment [4] is “Antagonist”.

`NC[C@H](O)c1ccc(O)c(O)c1`: in experiment [5], the ISA result is “Agonist”.

Take `COc1ccc(CCNC[C@H](O)COc2ccc(-c3nc(C(C)=O)c[nH]3)cc2)cc1OC`: the ISA result in experiment [1] was “Partial agonist”.

Regarding `CCN(CC)C(=O)Nc1ccc(OCC(O)CNC(C)(C)C)c(C(C)=O)c1` (centres undefined), the ISA entry in experiment [1] is “Partial agonist”.

Regarding `CC(C)(C)NCC(O)COc1ccccc1C#N` (centres undefined), the ISA entry in experiment [1] is “Partial agonist”.

With `CCc1cccc2cc(C(O)CNC(C)(C)C)oc12` (centres undefined), the ISA entry in experiment [2] was “Partial agonist”.

Consider `CC(C)NCC(O)COc1cccc2[nH]ccc12` (centres undefined), for which, in experiment [2], the ISA result is “Partial agonist”.

Turning to `COCCOc1ccc(OC[C@@H](O)CNC(C)C)cc1`, in experiment [2], the ISA result is “Partial agonist”.
